Source: ChEMBL document CHEMBL1201862, “PubChem BioAssay data set” (2004)
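48-hour exposure; five concentrations; linearly interpolated endpoints. GI50: concentration for 50% inhibition of growth.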 Active and inactive are the calls of the source. Rule as the data show it: active = GI50 up to about 1.1 µM and inactive = higher.

Key:
Test in all cases: DTP human tumour cell line panel, 48 h
M14 = system: M14
MDA-MB-231 = system: MDA-MB-231
OVCAR-8 = system: OVCAR-8
SR = system: SR
UACC-257 = system: UACC-257
MCF7 = system: MCF7
CCRF-CEM = system: CCRF-CEM
OVCAR-5 = system: OVCAR-5
OVCAR-4 = system: OVCAR-4
PC-3 = system: PC-3
OVCAR-3 = system: OVCAR-3
HCT-116 = system: HCT-116
NCI-H522 = system: NCI-H522
NCI-H23 = system: NCI-H23
A498 = system: A498
UACC-62 = system: UACC-62
HT-29 = system: HT-29
SK-OV-3 = system: SK-OV-3
COLO 205 = system: COLO 205

Structure (SMILES) | GI50 (M14) | GI50 (MDA-MB-231) | GI50 (OVCAR-8) | GI50 (SR) | GI50 (UACC-257) | GI50 (MCF7) | GI50 (CCRF-CEM) | GI50 (OVCAR-5) | GI50 (OVCAR-4) | GI50 (PC-3) | GI50 (OVCAR-3) | GI50 (HCT-116) | GI50 (NCI-H522) | GI50 (NCI-H23) | GI50 (A498) | GI50 (UACC-62) | GI50 (HT-29) | GI50 (SK-OV-3) | GI50 (COLO 205)
O=C1c2c(F)c(F)c(F)c(F)c2SC2=NCCN12 | 4.53 µM (inactive) | 8.75 µM (inactive) | 11.5 µM (inactive) | 1.15 µM (inactive) | 8.57 µM (inactive) | 8.15 µM (inactive) | 2.39 µM (inactive) | 15.4 µM (inactive) | 3.12 µM (inactive) | 13.6 µM (inactive) | 4.91 µM (inactive) | 2.15 µM (inactive) | 2.82 µM (inactive) | 5.42 µM (inactive) | 18.4 µM (inactive) | 5.04 µM (inactive) | 3.18 µM (inactive) | 15.3 µM (inactive) | 7.23 µM (inactive)
N#Cc1c(N)nc(Sc2ccccc2N)c(C#N)c1-c1ccc(Cl)cc1 | 10.5 µM (inactive) | 9.77 µM (inactive) | 9.12 µM (inactive) | 1 µM (active) | 15.9 µM (inactive) | 7.05 µM (inactive) | > 27.2 µM (inactive) | 27.1 µM (inactive) | 17.8 µM (inactive) | 3.71 µM (inactive) | 6.34 µM (inactive) | 6.81 µM (inactive) | 11.6 µM (inactive) | 21.4 µM (inactive) | 2.65 µM (inactive) | 4.06 µM (inactive) | 7.71 µM (inactive) | 12 µM (inactive) | 28.5 µM (inactive)
CCOC(=O)c1sc(=S)n(-c2ccc(Cl)cc2)c1-n1cc(-c2ccccc2)c(C#N)c1N | 53.1 µM (inactive) | 17.6 µM (inactive) | 12.1 µM (inactive) | 17.4 µM (inactive) | 41.4 µM (inactive) | 15.7 µM (inactive) | 31.8 µM (inactive) | > 100 µM (inactive) | 8.85 µM (inactive) | 11.8 µM (inactive) | 13.7 µM (inactive) | 26.1 µM (inactive) | 3.32 µM (inactive) | 21.8 µM (inactive) | 23.1 µM (inactive) | 24.8 µM (inactive) | 51.6 µM (inactive) | 16.9 µM (inactive) | > 100 µM (inactive)
COC1(OC)N=C(N)C2(C#N)C3(C(=O)N(C(C)C)N=C3C)C12C#N (stereo not given) | > 100 µM (inactive) | > 100 µM (inactive) | > 100 µM (inactive) | > 100 µM (inactive) | > 100 µM (inactive) | > 100 µM (inactive) | > 100 µM (inactive) | > 100 µM (inactive) | > 100 µM (inactive) | > 100 µM (inactive) | 49.7 µM (inactive) | > 100 µM (inactive) | > 100 µM (inactive) | > 100 µM (inactive) | > 100 µM (inactive) | > 100 µM (inactive) | > 100 µM (inactive) | > 100 µM (inactive) | > 100 µM (inactive)
COc1cc2oc3ccccc3c(=O)c2cc1CSc1ccccc1N | 23.2 µM (inactive) | 27.7 µM (inactive) | 33.5 µM (inactive) | 5.2 µM (inactive) | 47.5 µM (inactive) | 13.6 µM (inactive) | 4.94 µM (inactive) | > 81.8 µM (inactive) | 13.6 µM (inactive) | 14.5 µM (inactive) | 18.5 µM (inactive) | 19.5 µM (inactive) | 8.89 µM (inactive) | 29.9 µM (inactive) | 17.3 µM (inactive) | 9.71 µM (inactive) | 18.7 µM (inactive) | 28 µM (inactive) | 15.8 µM (inactive)
